Experimental data published in ChEMBL document CHEMBL3526047, “Excretion, metabolism, and pharmacokinetics of 1-(8-(2-chlorophenyl)-9-(4-chlorophenyl)-9H-purin-6-yl)-4-(ethylamino)piperidine-4-carboxamide, a selective cannabinoid receptor antagonist, in healthy male volunteers” (Drug Metab Dispos, 2012).
Each block holds one compound with its values, some of them ahead of it.

What was measured:
Homo sapiens [1] = experiment: Total drug excretion in healthy obese adult male human treated with [14C]CP-945,598 at 25 mg, po administered as single dose after 0 to 384 hrs hrs by HPLC method; assay type: ADME, organism-based; settings: in vivo
[2] = Drug excretion in feces of healthy obese adult male human treated with [14C]CP-945,598 at 25 mg, po administered as single dose after 0 to 384 hrs hrs by HPLC method; assay type: ADME, organism-based; settings: in vivo
[3] = Drug excretion in urine of healthy obese adult male human treated with [14C]CP-945,598 at 25 mg, po administered as single dose after 0 to 384 hrs hrs by HPLC method; assay type: ADME, organism-based; settings: in vivo
Cytochrome P450 3A4 = Cytochrome P450 3A4 (Homo sapiens, UniProt P08684); experiment: Drug metabolism assessed as human recombinant CYP3A4-mediated metabolite formation after 60 mins by HPLC method; assay type: ADME; settings: recombinant enzyme, 1 h
Cytochrome P450 3A4, sequence (P08684 whole entry): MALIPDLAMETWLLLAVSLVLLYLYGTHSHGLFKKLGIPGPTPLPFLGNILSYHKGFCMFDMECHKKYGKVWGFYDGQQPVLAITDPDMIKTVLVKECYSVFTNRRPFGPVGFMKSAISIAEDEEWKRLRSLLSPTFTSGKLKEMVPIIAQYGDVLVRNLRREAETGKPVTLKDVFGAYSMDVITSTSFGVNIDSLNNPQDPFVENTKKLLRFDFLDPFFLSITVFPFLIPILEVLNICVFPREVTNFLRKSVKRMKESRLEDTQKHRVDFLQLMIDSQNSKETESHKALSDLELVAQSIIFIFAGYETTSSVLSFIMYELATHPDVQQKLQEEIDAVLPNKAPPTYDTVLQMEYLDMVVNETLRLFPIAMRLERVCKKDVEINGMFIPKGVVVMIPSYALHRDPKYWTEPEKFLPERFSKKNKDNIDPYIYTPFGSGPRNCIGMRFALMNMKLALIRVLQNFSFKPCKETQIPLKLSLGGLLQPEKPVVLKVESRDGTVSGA

Serum [4] = experiment: Drug level in serum of healthy obese adult male human treated with [14C]CP-945,598 at 25 mg, po administered as single dose after 24 hrs by HPLC method; assay type: ADME, organism-based; settings: in vivo
Serum [5] = experiment: Drug level in serum of healthy obese adult male human treated with [14C]CP-945,598 at 25 mg, po administered as single dose after 48 hrs by HPLC method; assay type: ADME, organism-based; settings: in vivo
Serum [6] = experiment: Drug level in serum of healthy obese adult male human treated with [14C]CP-945,598 at 25 mg, po administered as single dose after 4 hrs by HPLC method; assay type: ADME, organism-based; settings: in vivo
Serum [7] = experiment: AUC in serum of healthy obese adult male human treated with [14C]CP-945,598 at 25 mg, po administered as single dose after 48 hrs by HPLC method; assay type: ADME, organism-based; set-up: time < 48 hr, dose 25 mg, route oral; settings: in vivo
Serum [8] = experiment: Total drug level in serum of healthy obese adult male human treated with [14C]CP-945,598 at 25 mg, po administered as single dose after 48 hrs by HPLC method; assay type: ADME, organism-based; settings: in vivo
Serum [9] = experiment: Drug level in serum of healthy obese adult male human treated with [14C]CP-945,598 at 25 mg, po administered as single dose after 12 hrs by HPLC method; assay type: ADME, organism-based; settings: in vivo
[10] = Tmax in human; assay type: ADME, organism-based; settings: in vivo
[11] = Cmax in healthy obese adult male human at 25 mg, po administered as single dose; assay type: ADME, organism-based; set-up: dose 25 mg, route oral; settings: in vivo
Homo sapiens [12] = experiment: AUC (0 to infinity) in healthy obese adult male human at 25 mg, po administered as single dose; assay type: ADME, organism-based, Plasma; set-up: dose 25 mg, route oral, time infinity; settings: in vivo
[13] = Tmax in healthy obese adult male human at 25 mg, po administered as single dose; assay type: ADME, organism-based; settings: in vivo
[14] = Terminal elimination half life in healthy obese adult male human at 25 mg, po administered as single dose; assay type: ADME, organism-based; settings: in vivo, read-out: beta t1/2 (converted)
Homo sapiens [15] = experiment: AUC (0 to last) in healthy obese adult male human at 25 mg, po administered as single dose; assay type: ADME, organism-based, Plasma; set-up: dose 25 mg, time 0 - last, route oral; settings: in vivo
[16] = Terminal phase half life in human; assay type: ADME, organism-based; settings: in vivo, read-out: beta t1/2 (converted)
[17] = Bioavailability in dog; assay type: ADME, organism-based, Canis lupus familiaris; settings: in vivo
[18] = Bioavailability in rat; assay type: ADME, organism-based; settings: in vivo

Drug excretion (Homo sapiens [1]): 1.8%
Drug excretion [2]: 1.2%
Drug metabolism (Cytochrome P450 3A4): 8.8%
Drug excretion [3]: 0.6%
SMILES: NC(=O)C1(NO)CCN(c2ncnc3c2nc(-c2ccccc2Cl)n3-c2ccc(Cl)cc2)CC1

Tmax [10]: 4 h
Cmax [11]: 14 ng/mL
AUC (Homo sapiens [12]): 864 ng·h/mL
Tmax [13]: 6 h
half-life [14]: 159 h
AUClast (Homo sapiens [15]): 778 ng·h/mL
half-life [16]: 107 h
bioavailability [17]: 32%
bioavailability [18]: 32%
SMILES: CCNC1(C(N)=O)CCN(c2ncnc3c2nc(-c2ccccc2Cl)n3-c2ccc(Cl)cc2)CC1.Cl [OTENABANT HYDROCHLORIDE]

Continued, compound first:

SMILES: NC1(C(=O)O)CCN(c2ncnc3c2nc(-c2ccccc2Cl)n3-c2ccc(Cl)cc2)CC1
Drug excretion (Homo sapiens [1]): 36.3%
Drug excretion [2]: 30.9%
Drug excretion [3]: 5.4%

SMILES: NC(=O)C1(NO[C@@H]2O[C@H](CO)[C@@H](O)[C@H](O)[C@H]2O)CCN(c2ncnc3c2nc(-c2ccccc2Cl)n3-c2ccc(Cl)cc2)CC1
Drug excretion (Homo sapiens [1]): 4.8%
Drug excretion [3]: 4.8%

SMILES: ON=C1CCN(c2ncnc3c2nc(-c2ccccc2Cl)n3-c2ccc(Cl)cc2)CC1
Drug uptake (Serum [4]): 10.9 ngequiv/g
Drug uptake (Serum [5]): 6 ngequiv/g
Drug uptake (Serum [6]): 10.1 ngequiv/g
AUC (Serum [7]): 438 ngequiv.hr/g
Drug uptake (Serum [8]): 17.9 ngequiv/g
Drug uptake (Serum [9]): 10.9 ngequiv/g
Drug metabolism (Cytochrome P450 3A4): 13%
